Like-named read-outs stand apart in the source and are kept apart here. Non-standard residues stand in square brackets, D forms with d. Residues, ends and D or L forms follow the SMILES beside them. *: point of attachment. boroGlu = O=C(O)CC[C@H](N*)B(O)O; Abu = CC[C@H](N)C(=O)O
Tests used:
His6-CylA-27-412 [1] = target: T1, His6-CylA-27-412 (Enterococcus faecalis, UniProt A0A2P6AWB8); assay: Analysis of CylA inhibition by LCMS (cleavage of mCylLL and mCylLS); assay type: biochemical; conditions: 1 µM inhibitor; enzyme 4 nM; substrate 10 µM; 30 min, room temperature
T1 sequence (A0A2P6AWB8 27-412): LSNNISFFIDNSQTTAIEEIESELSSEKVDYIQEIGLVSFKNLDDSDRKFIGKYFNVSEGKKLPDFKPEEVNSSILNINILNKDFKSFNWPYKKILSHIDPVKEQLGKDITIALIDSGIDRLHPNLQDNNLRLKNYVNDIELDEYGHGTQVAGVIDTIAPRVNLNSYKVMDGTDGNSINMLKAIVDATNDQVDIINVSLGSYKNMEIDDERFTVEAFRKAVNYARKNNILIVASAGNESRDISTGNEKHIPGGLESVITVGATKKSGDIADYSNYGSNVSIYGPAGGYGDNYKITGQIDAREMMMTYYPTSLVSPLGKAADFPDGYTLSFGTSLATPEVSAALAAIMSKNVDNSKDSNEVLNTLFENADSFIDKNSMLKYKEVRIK
Protocol: We expressed CylA in Escherichia coli with an N-terminal His6-tag and without the secretion signal that is present in WT CylA. […] (4 nM) gave partial conversion to the mature core peptide after 30 min at room temperature.
A Peak highlighted in green is the LP and peak highlighted in orange is CylLL”. B Peak highlighted in blue is the LP and peak highlighted in violet is CylLS”. Longer incubation times result in near-complete cleavage of the substrates. Source data are provided as a Source Data file.
His6-CylA-27-412 was added to PBS (pH = 7.4) to achieve a total enzyme concentration of 4 nM then 1 was added to a concentration 1 μM. […] Reactions were allowed to stand for 30 min before quenching through adjustment to 1% formic acid. Reactions were analyzed directly by LCMS using a Jupiter 5 µm C4 300 Å, 50 × 2 mm LC column. The following gradient was used: 98% H2O + 0.1% FA (solvent A)/2% MeCN + 0.1% FA (solvent B) for 2 min then 98:2 to 2:98 solvent A:solvent B over 10 min. Extracted ion chromatograms (EIC) for each species were merged into a single trace. […] CylA was also previously reported to prefer the modified peptides over the linear peptides.

His6-CylA-27-412 [2] = target: T1, His6-CylA-27-412; assay: Co-operative pore formation assay (pyranine liposomes) measuring CylA-catalyzed cytolysin maturation; assay type: biochemical
Text: Cytolysin causes hemolysis and lyses a variety of eukaryotic cells[36],[37]. Additionally, CylA aggregates and is thought to associate primarily with the membrane of the producing cell[52],[53]. To mimic the maturation of cytolysin in vitro, an enzyme assay was designed that linked toxin production to the lysis of fluorescently labeled liposomes. […] In this way, pyranine fluorescence was correlated to toxin activation allowing for the determination of EC50 values (Fig. 4B, C).
Fig. 4 In vitro pore formation assay for determining inhibitor effectiveness. A A schematic of the assay showing how pore formation is used as an indicator of toxin maturation. […] Pore formation dissipates a pH gradient between the interior of the liposome and the surrounding buffer increasing pyranine fluorescence. […] The data points from two replicates are shown (n = 2). Source data are provided as a Source Data file.
Pyranine encapsulated liposomes were prepared as described elsewhere. […] To a well in a black 96-well plate (200 µL) was added 90 µL high pH buffer (5 mM MES, 5 mM Tricine, 5 mM NaCl, pH 7.4) containing CylA (4 nM final concentration). After adding inhibitor, the mixture was incubated at room temperature for 10 min then freshly prepared (no more than 2 days old) pyranine encapsulated DOPC liposomes were added such that the total DOPC concentration was 80 µM. […] The resulting curves were max-min normalized yielding the fraction of permeabilized liposomes. […] This experiment was performed in duplicate or triplicate for each inhibitor at each concentration.
Supplementary Figure 3. Measuring CylA-cat alyzed cytolysin maturation using a pyranine pore formation assay. Plots on the left side show the normalized pyranine emission intensity monitored […]
was added 30 min later. Each trace w as collected using a differ ent total co ncentration of inhibitor as indicated in the l egend. Traces are from a single representative tri al. On the right side, the fraction of liposomes permeabilized after 30 min was plotted as a function of total inhibitor concentration. The data were fit to a dose-response function using Origin 7 and the fit curve is depicted by the red line. Errors bars represent the standard of deviation bet ween two replicates (n = 2). Source d ata are pro vided as a Source Data file. […]

HeLa cells = assay type: cell-based
Protocol: Cell culturing and maintenance was performed in Dulbecco’s Modified Eagle Medium (DMEM, Gibco) supplemented with 10% heat inactivated fetal bovine serum (FBS, Gibco). Cells were routinely checked for mycoplasm using mycoplasm specific primers. HeLa cells (ATCC) were seeded in 96 well plates (Nunc) using a seeding density of 5000 cells/well and allowed to adhere for 16 h at 37 °C, 5% CO2. […] Post-treatment, plates were incubated for 72 h at 37 °C, 5% CO2. Subsequently, the growth medium was removed, and the cells were washed once with pre-warmed phosphate buffered saline (PBS; pH = 7.2). Next, 50 µL of DMEM-FBS media containing 1 mg/mL of 3-(4,5-dimethylthiazol-2-yl)-2,5-diphenyltetrazolium bromide (MTT) was added to the cells and the cells were incubated in the dark at 37 °C, 5% CO2 for 4 h. During this time, live cells reduced yellow tetrazolium salts to purple formazan crystals through NAD(P)H-dependent oxidoreductase activity. After 4 h, the medium was removed carefully and the insoluble formazan crystals were solubilized by incubating with 100 µL of dimethyl sulfoxide (DMSO) in the dark for 1 h with intermittent swirling. Finally, absorbance was recorded at 575 nm (Supplementary Fig. 18). The percentage of cells that survived over the course of the assay was calculated using Eq. 1.1 %survival=100%−Absorbanceoftreatedwell−AvgAbsorbanceofnegativecontrolwells/AvgAbsorbanceofpositivecontrol−AvgAbsorbanceofnegativecontrol*100% […]
Supplementary Figure 18.Cytotoxicity assay of boronic acid inhibitors 2 , 3, 5- 9 against HeLa […]
µM or less as determined by an MTT-based assay. Puromycin was used as positive control, while deionized sterile w ater w as used as a n egative con trol. Source data are prov ided as a Source Dat a […]

CC(=O)NCC(=O)N[C@@H](CC(=O)O)C(=O)N[C@H](C(=O)N[C@@H](CCC(N)=O)C(=O)N[C@@H](C)C(=O)N[C@@H](CCC(=O)O)B(O)O)C(C)C [Compound 1] (Ac-GDVQA-boroGlu)
His6-CylA-27-412-catalyzed cleavage of mCylLS and mCylLL (His6-CylA-27-412 [1]): completely blocked

CC[C@H](NC(=O)[C@H](CCC(N)=O)NC(=O)[C@@H](NC(=O)[C@H](CC(=O)O)NC(=O)CNC(C)=O)C(C)C)C(=O)N[C@@H](CCC(=O)O)B(O)O [Compound 6] (Ac-GDVQ[Abu]-boroGlu)
EC50 (His6-CylA-27-412 [2]): 70 ± 11 nM
increase in EC50 relative to 1 (His6-CylA-27-412 [2]; pore formation assay): ~ 2 fold

CC(=O)N[C@@H](CO)C(=O)N[C@@H](CC(=O)O)C(=O)N[C@H](C(=O)N[C@@H](CCC(N)=O)C(=O)N[C@@H](C)C(=O)N[C@@H](CCC(=O)O)B(O)O)C(C)C [Compound 8] (Ac-SDVQA-boroGlu)
EC50 (His6-CylA-27-412 [2]): 40 ± 3 nM

COc1ccc(C[C@H](N)C(=O)N[C@H]2[C@@H](O)[C@H](n3cnc4c(N(C)C)ncnc43)O[C@@H]2CO)cc1 [puromycin]
% survival (HeLa cells; additive concentration 1.6 (unit not given)): 5.522%
% survival (HeLa cells; additive concentration 3.1 (unit not given)): 4.2%
% survival (HeLa cells; additive concentration 6.3 (unit not given)): 4.093%
% survival (HeLa cells; additive concentration 13 (unit not given)): 3.889%
% survival (HeLa cells; additive concentration 25 (unit not given)): 3.867%
% survival (HeLa cells; additive concentration 50 (unit not given)): 3.889%
% survival (HeLa cells; additive concentration 100 (unit not given)): 3.867%

Source: PMC12304293, “Combatting virulent gut bacteria by inhibiting the biosynthesis of a two-component lanthipeptide toxin” (Nature Communications, 2025)
